Patent publication US20110152333A1, “3-CYANOPYRROLIDINYL-PHENYL-OXAZOLIDINONES AS ANTIBACTERIAL AGENTS” (FERRER INTERNACIONAL, S.A., priority 2008, published 2011)
Values after ≈ are worked out from the molar mass of the structure shown. Where two headings read alike, the source gives them in different places.

Key:
[1] = system: S. aureus ATCC25923 MS; assay: MIC, micro dilution (NCCLS M7-A5); assay type: cell-based, Staphylococcus aureus
[2] = system: S. pneumoniae ATCC49619 PR; assay: MIC, micro dilution (NCCLS M7-A5); assay type: cell-based, Streptococcus pneumoniae
[3] = system: E. faecium ATCC51559 MDR; assay: MIC, micro dilution (NCCLS M7-A5); assay type: cell-based, Enterococcus faecium
[4] = system: S. aureus LNZ-R 432; assay: MIC, micro dilution (NCCLS M7-A5); assay type: cell-based; conditions: Staphylococcus aureus, LNZR432, Table 1
[5] = system: H. influenzae ATCC49247; assay: MIC, micro dilution (NCCLS M7-A5); assay type: cell-based, Haemophylus influenzae; conditions: Haemophilus influenzae, Table 1
[6] = system: B. fragilis sp. fragilis ATCC25285; assay: MIC, micro dilution (NCCLS M7-A5); assay type: cell-based; conditions: Bacteroides fragilis, Table 1, Brucella Blood medium for anaerobic strains
[7] = system: Moraxella catarrhalis HCI-78; assay: MIC, micro dilution (NCCLS M7-A5); assay type: cell-based; conditions: HCI78, Table 1, 5% CO2
[8] = system: E. faecium LNZ-R LR-4; assay: MIC, micro dilution (NCCLS M7-A5); assay type: cell-based, Enterococcus faecium
[9] = system: S. aureus clinical strain cfr. methylase; assay: MIC, micro dilution (NCCLS M7-A5); assay type: cell-based; conditions: Staphylococcus aureus, Table 2
[10] = system: S. aureus 1199; assay: MIC, micro dilution (NCCLS M7-A5); assay type: cell-based; conditions: Staphylococcus aureus, Table 2
[11] = system: S. aureus 199B; assay: MIC, micro dilution (NCCLS M7-A5); assay type: cell-based; conditions: Staphylococcus aureus, Table 2
[12] = system: MRSE; assay: MIC, micro dilution (NCCLS M7-A5); assay type: cell-based; conditions: Staphylococcus epidermidis, Table 2
[13] = system: MRSE-128; assay: MIC, micro dilution (NCCLS M7-A5); assay type: cell-based; conditions: Table 2
[14] = system: S. Haemolyticus; assay: MIC, micro dilution (NCCLS M7-A5); assay type: cell-based; conditions: Staphylococcus haemolyticus, Table 2
[15] = system: E. faecalis ECFL-1; assay: MIC, micro dilution (NCCLS M7-A5); assay type: cell-based; conditions: Enterococcus faecalis, ECFL1, Table 2
[16] = system: E. faecalis ECFL-1-128; assay: MIC, micro dilution (NCCLS M7-A5); assay type: cell-based; conditions: Enterococcus faecalis, ECFL1128, Table 2
[17] = system: E. faecalis ECFL-2; assay: MIC, micro dilution (NCCLS M7-A5); assay type: cell-based; conditions: Enterococcus faecalis, ECFL2, Table 2
[18] = system: E. faecium ECFM-1; assay: MIC, micro dilution (NCCLS M7-A5); assay type: cell-based; conditions: Enterococcus faecium, ECFM1, Table 2
[19] = system: E. faecium ECFM-1-128; assay: MIC, micro dilution (NCCLS M7-A5); assay type: cell-based; conditions: Enterococcus faecium, ECFM1128, Table 2
[20] = system: E. faecium ECFM-2; assay: MIC, micro dilution (NCCLS M7-A5); assay type: cell-based; conditions: Enterococcus faecium, ECFM2, Table 2
[21] = system: Staphyl.; assay: Geometric mean MIC, staphylococci; assay type: cell-based; conditions: Table 2, read-out: Geom. Mean MIC Staphyl.
[22] = system: Enteroc.; assay: Geometric mean MIC, enterococci; assay type: cell-based; conditions: Table 2, read-out: Geom. Mean MIC Enteroc.
[23] = system: S. aureus ATCC33591 in vivo; assay: MIC, micro dilution (NCCLS M7-A5); assay type: cell-based; conditions: Staphylococcus aureus, Table 2
[24] = system: S. pneumoniae ATCC6303 in vivo; assay: MIC, micro dilution (NCCLS M7-A5); assay type: cell-based; conditions: Streptococcus pneumoniae, Table 2
[25] = system: S. aureus ATCC43300 MR; assay: MIC, micro dilution (NCCLS M7-A5); assay type: cell-based; conditions: Staphylococcus aureus, Table 2
[26] = system: S. aureus 1199B NorA overE; assay: MIC, micro dilution (NCCLS M7-A5); assay type: cell-based; conditions: Staphylococcus aureus
[27] = system: S. epidermidis ATCC12228 MR; assay: MIC, micro dilution (NCCLS M7-A5); assay type: cell-based; conditions: Staphylococcus epidermidis, Table 2
[28] = system: E. faecalis ATCC29212; assay: MIC, micro dilution (NCCLS M7-A5); assay type: cell-based; conditions: Enterococcus faecalis, Table 2
[29] = system: E. faecalis ATCC51575 MDR; assay: MIC, micro dilution (NCCLS M7-A5); assay type: cell-based; conditions: Enterococcus faecalis, Table 2
[30] = system: E. faecium ATCC10541; assay: MIC, micro dilution (NCCLS M7-A5); assay type: cell-based; conditions: Enterococcus faecium, Table 2
[31] = system: E. coli TG1; assay: MIC, micro dilution (NCCLS M7-A5); assay type: cell-based; conditions: Escherichia coli, Table 2
[32] = system: E. coli KAM-3; assay: MIC, micro dilution (NCCLS M7-A5); assay type: cell-based; conditions: Escherichia coli, KAM3, Table 2
[33] = system: Gram+; assay: Geometric mean MIC, Gram+; assay type: cell-based; conditions: Table 2, read-out: Geom. Mean MIC Gram+
[34] = system: Moraxella, Pasteurella and Bacteroides spp.; conditions: background; cited from earlier work
[35] = Staphylococcus aureus, Table 1, read-out: MIC
[36] = Streptococcus pneumoniae, Table 1, 5% CO2, read-out: MIC
[37] = Enterococcus faecium, Table 1, read-out: MIC
[38] = Enterococcus faecium, Table 2, read-out: MIC

CC(=O)NC[C@H]1CN(c2ccc(N3CCC(C#N)C3)c(F)c2)C(=O)O1 (stereo partly drawn) [Ex. 1, N-{(5S)-3-[3-fluoro-4-(3-cyanopyrrolidin-1-yl)phenyl]-2-oxo-5-oxazolidinylmethyl}acetamide]
MIC [1, 35]: 0.5 µg/mL (≈ 1.44 µM) | MIC ([1]; Table 2): 0.5 µg/mL (≈ 1.44 µM) | MIC [2, 36]: 0.25 µg/mL (≈ 0.722 µM) | MIC ([2]; Table 2): 0.25 µg/mL (≈ 0.722 µM) | MIC [3, 37]: 0.25 µg/mL (≈ 0.722 µM) | MIC ([3]; Table 2): 0.25 µg/mL (≈ 0.722 µM) | MIC [4]: 4 µg/mL (≈ 11.5 µM) | MIC [5]: 4 µg/mL (≈ 11.5 µM) | MIC [6]: 0.5 µg/mL (≈ 1.44 µM) | MIC [7]: 2 µg/mL (≈ 5.77 µM) | MIC [8, 37]: 8 µg/mL (≈ 23.1 µM) | MIC ([8]; Table 2): 8 µg/mL (≈ 23.1 µM) | MIC [9]: 4 µg/mL (≈ 11.5 µM) | MIC [10]: 1 µg/mL (≈ 2.89 µM) | MIC [11]: 1 µg/mL (≈ 2.89 µM) | MIC [12]: 0.25 µg/mL (≈ 0.722 µM) | MIC [13]: 8 µg/mL (≈ 23.1 µM) | MIC [14]: 8 µg/mL (≈ 23.1 µM) | MIC [15]: 0.125 µg/mL (≈ 0.361 µM) | MIC [16]: 32 µg/mL (≈ 92.4 µM) | MIC [17]: 1 µg/mL (≈ 2.89 µM) | MIC [18]: 0.5 µg/mL (≈ 1.44 µM) | MIC [19]: 32 µg/mL (≈ 92.4 µM) | MIC [20]: 0.5 µg/mL (≈ 1.44 µM) | MIC [21]: 0.4 µg/mL (≈ 1.15 µM) | MIC [22]: 0.3 µg/mL (≈ 0.866 µM) | MIC [23]: 0.25 µg/mL (≈ 0.722 µM) | MIC [24]: 0.25 µg/mL (≈ 0.722 µM) | MIC [25]: 0.5 µg/mL (≈ 1.44 µM) | MIC [26]: 0.5 µg/mL (≈ 1.44 µM) | MIC [27]: 0.25 µg/mL (≈ 0.722 µM) | MIC [28]: 0.25 µg/mL (≈ 0.722 µM) | MIC [29]: 0.25 µg/mL (≈ 0.722 µM) | MIC [30]: 0.25 µg/mL (≈ 0.722 µM) | MIC [31]: 32 µg/mL (≈ 92.4 µM) | MIC [32]: 1 µg/mL (≈ 2.89 µM)

CC(=O)NC[C@H]1CN(c2ccc(N3CCC(O)C3)c(F)c2)C(=O)O1 (stereo partly drawn) [Ex. 5, (S)—N-[[3-[4-(3-hydroxypyrrolidinyl)-3-fluorophenyl]-2-oxo-5-oxazolidinyl]methyl]acetamide, reference compound]
MIC ([1]; Staphylococcus aureus, Table 2, read-out: MIC): 2 µg/mL (≈ 5.93 µM) | MIC ([2]; Streptococcus pneumoniae, Table 2, read-out: MIC): 1 µg/mL (≈ 2.96 µM) | MIC [3, 38]: 1 µg/mL (≈ 2.96 µM) | MIC [8, 38]: 32 µg/mL (≈ 94.9 µM) | MIC [9]: 16 µg/mL (≈ 47.4 µM) | MIC [10]: 2 µg/mL (≈ 5.93 µM) | MIC [11]: 2 µg/mL (≈ 5.93 µM) | MIC [12]: 1 µg/mL (≈ 2.96 µM) | MIC [13]: 32 µg/mL (≈ 94.9 µM) | MIC [14]: 32 µg/mL (≈ 94.9 µM) | MIC [15]: 2 µg/mL (≈ 5.93 µM) | MIC [16]: 64 µg/mL (≈ 190 µM) | MIC [17]: 4 µg/mL (≈ 11.9 µM) | MIC [18]: 2 µg/mL (≈ 5.93 µM) | MIC [19]: 64 µg/mL (≈ 190 µM) | MIC [20]: 2 µg/mL (≈ 5.93 µM) | MIC [21]: 1.2 µg/mL (≈ 3.56 µM) | MIC [22]: 1.7 µg/mL (≈ 5.04 µM) | MIC [33]: 1.4 µg/mL (≈ 4.15 µM) | MIC [23]: 2 µg/mL (≈ 5.93 µM) | MIC [24]: 0.5 µg/mL (≈ 1.48 µM) | MIC [25]: 1 µg/mL (≈ 2.96 µM) | MIC [26]: 1 µg/mL (≈ 2.96 µM) | MIC [27]: 1 µg/mL (≈ 2.96 µM) | MIC [28]: 2 µg/mL (≈ 5.93 µM) | MIC [29]: 2 µg/mL (≈ 5.93 µM) | MIC [30]: 2 µg/mL (≈ 5.93 µM) | MIC [31]: 64 µg/mL (≈ 190 µM) | MIC [32]: 4 µg/mL (≈ 11.9 µM)

CC(=O)NC[C@H]1CN(c2ccc(N3CCOCC3)c(F)c2)C(=O)O1 [Linezolid, N-[[(5S)-3-[3-fluoro-4-(4-morpholinyl)phenyl]-2-oxo-5-oxazolidinyl]methyl]acetamide, reference compound]
MIC [1, 35]: 1 µg/mL (≈ 2.96 µM) | MIC [2, 36]: 1 µg/mL (≈ 2.96 µM) | MIC [3, 37]: 0.5 µg/mL (≈ 1.48 µM) | MIC [4]: 16 to 32 µg/mL (≈ 47.4 to 94.9 µM) | MIC [5]: 16 µg/mL (≈ 47.4 µM) | MIC [6]: 2 µg/mL (≈ 5.93 µM) | MIC [7]: 2 µg/mL (≈ 5.93 µM) | MIC [8, 37]: 64 µg/mL (≈ 190 µM) | MICs [34]: 2 to 8 µg/mL
